In US10189836B2, “Therapeutic compounds, compositions and methods of use thereof” (Genentech, Inc., priority 2015, dated 2019):

How the values were obtained:
[1] = molecular target: isolated recombinant JAK2 kinase domain (Homo sapiens (Human), UniProt O60674); assay: JAK2 enzyme assay (Caliper LabChip, Ki); type: biochemical; settings: isolated recombinant JAK2 kinase domain, 0.2 nM enzyme, ATP 25 μM
[2] = molecular target: isolated recombinant JAK1 kinase domain (Homo sapiens (Human), UniProt P23458); assay: JAK1 enzyme assay (Caliper LabChip, Ki); type: biochemical; settings: isolated recombinant JAK1 kinase domain, 1.5 nM enzyme, ATP 25 μM
Chain of isolated recombinant JAK1 kinase domain (P23458 875-1153): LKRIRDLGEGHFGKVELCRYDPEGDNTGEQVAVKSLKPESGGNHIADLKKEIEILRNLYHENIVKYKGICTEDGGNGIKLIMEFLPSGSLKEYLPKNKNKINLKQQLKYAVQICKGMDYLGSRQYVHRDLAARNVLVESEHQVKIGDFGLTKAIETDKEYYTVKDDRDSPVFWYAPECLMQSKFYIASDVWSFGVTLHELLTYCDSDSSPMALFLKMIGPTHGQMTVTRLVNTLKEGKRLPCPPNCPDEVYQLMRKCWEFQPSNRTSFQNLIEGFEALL

Chain of isolated recombinant JAK2 kinase domain (O60674 849-1124): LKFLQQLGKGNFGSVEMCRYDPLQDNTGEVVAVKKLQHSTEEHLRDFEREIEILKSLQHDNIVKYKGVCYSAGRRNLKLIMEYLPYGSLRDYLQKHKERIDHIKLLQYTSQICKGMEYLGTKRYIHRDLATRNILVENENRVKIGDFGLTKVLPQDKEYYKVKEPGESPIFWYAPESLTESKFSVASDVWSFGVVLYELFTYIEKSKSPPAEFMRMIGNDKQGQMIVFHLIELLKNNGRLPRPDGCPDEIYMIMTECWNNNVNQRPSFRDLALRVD

Compound | Ki [1] [nM] | Ki [2] [nM]
CCN1CCN(C(=O)Cn2cc(Nc3nc4c(N5CC6CCC(C5)N6C(=O)N5CC(C(F)(F)F)C5)cccn4n3)cn2)CC1 [Example 59, 1-(4-ethylpiperazin-1-yl)-2-[4-[[8-[8-[3-(trifluoromethyl)azetidine-1-carbonyl]-3,8-diazabicyclo[3.2.1]octan-3-yl]-[1,2,4]triazolo[1,5-a]pyridin-2-yl]amino]pyrazol-1-yl]ethanone] | 0.5 | 0.8
CN1CCN(C(=O)Cn2cc(Nc3nc4c(N5CC6CCC(C5)N6C(=O)N5CC(F)C5)cccn4n3)cn2)CC1 [Example 170, 2-[4-[[8-[8-(3-fluoroazetidine-1-carbonyl)-3,8-diazabicyclo[3.2.1]octan-3-yl]-[1,2,4]triazolo[1,5-a]pyridin-2-yl]amino]pyrazol-1-yl]-1-(4-methylpiperazin-1-yl)ethanone] | 0.2 | 0.3
CN1CCN(C(=O)Cn2cc(Nc3nc4c(N5CC6CCC(C5)N6S(=O)(=O)CCCC#N)cccn4n3)cn2)CC1 [Example 176, 4-[[3-[2-[[1-[2-(4-methylpiperazin-1-yl)-2-oxo-ethyl]pyrazol-4-yl]amino]-[1,2,4]triazolo[1,5-a]pyridin-8-yl]-3,8-diazabicyclo[3.2.1]octan-8-yl]sulfonyl]butanenitrile] | 3.4 | 0.7
O=C(Cn1cc(Nc2nc3c(N4CC5CCC(C4)N5C(=O)CCC(F)(F)F)cccn3n2)cn1)N1CCC(CN2CCOCC2)CC1 [Example 41, 4,4,4-trifluoro-1-[3-[2-[[1-[2[4-(morpholinomethyl)-1-piperidyl]-2-oxo-ethyl]pyrazol-4-yl]amino]-[1,2,4]triazolo[1,5-a]pyridin-8-yl]-3,8-diazabicyclo[3.2.1]octan-8-yl]butan-1-one] | 4.6 | 2.6
CN1CCN(C(=O)Cn2cc(Nc3nc4c(N5C[C@H]6CC[C@@H](C5)[C@H]6OCc5cccc(C#N)c5)cccn4n3)cn2)CC1 [Example 129, 3-[[(1S,5R)-3-[2-[[1-[2-(4-methylpiperazin-1-yl)-2-oxo-ethyl]pyrazol-4-yl]amino]-[1,2,4]triazolo[1,5-a]pyridin-8-yl]-3-azabicyclo[3.2.1]octan-8-yl]oxymethyl]benzonitrile] | 2.3 | 0.6
CN1CCN(C(=O)Cn2cc(Nc3nc4c(N5CC6CCC(C5)N6C(=O)CC(O)C(F)(F)F)cccn4n3)cn2)CC1 (stereo not shown) [Example 154, 4,4,4-trifluoro-3-hydroxy-1-[3-[2-[[1-[2-(4-methylpiperazin-1-yl)-2-oxo-ethyl]pyrazol-4-yl]amino]-[1,2,4]triazolo[1,5-a]pyridin-8-yl]-3,8-diazabicyclo[3.2.1]octan-8-yl]butan-1-one] | 0.9 | 0.5
CN1CCN(C(=O)Cn2cc(Nc3nc4c(N5CC6CCC(C5)N6C(=O)c5ccsc5)cccn4n3)cn2)CC1 [Example 157, 1-(4-methylpiperazin-1-yl)-2-[4-[[8-[8-(thiophene-3-carbonyl)-3,8-diazabicyclo[3.2.1]octan-3-yl]-[1,2,4]triazolo[1,5-a]pyridin-2-yl]amino]pyrazol-1-yl]ethanone] | 1.4 | 0.4
CSc1ccccc1S(=O)(=O)N1C2CCC1CN(c1cccn3nc(Nc4cnn(CC(=O)N5CCN(C)CC5)c4)nc13)C2 [Example 132, 1-(4-methylpiperazin-1-yl)-2-[4-[[8-[8-(2-methylsulfanylphenyl)sulfonyl-3,8-diazabicyclo[3.2.1]octan-3-yl]-[1,2,4]triazolo[1,5-a]pyridin-2-yl]amino]pyrazol-1-yl]ethanone] | 0.4 | 0.4
CN1CCN(C(=O)Cn2cc(Nc3nc4c(N5CC6CCC(C5)N6S(=O)(=O)c5ccccc5)cccn4n3)cn2)CC1 [Example 61, 2-[4-[[8-[8-(benzenesulfonyl)-3,8-diazabicyclo[3.2.1]octan-3-yl]-[1,2,4]triazolo[1,5-a]pyridin-2-yl]amino]pyrazol-1-yl]-1-(4-methylpiperazin-1-yl)ethanone] | 1 | 0.6
CN1CCN(C(=O)Cn2cc(Nc3nc4c(N5CC6CCC(C5)N6C(=O)N5CCC(C#N)CC5)cccn4n3)cn2)CC1 [Example 182, 1-[3-[2-[[1-[2-(4-methylpiperazin-1-yl)-2-oxo-ethyl]pyrazol-4-yl]amino]-[1,2,4]triazolo[1,5-a]pyridin-8-yl]-3,8-diazabicyclo[3.2.1]octane-8-carbonyl]piperidine-4-carbonitrile] | 0.9 | 0.6
CN1CCN(C(=O)Cn2cc(Nc3nc4c(N5C6CC5CN(C(=O)CCC(F)(F)F)C6)cccn4n3)cn2)CC1 [Example 48, 4,4,4-trifluoro-1-[6-[2-[[1-[2-(4-methylpiperazin-1-yl)-2-oxo-ethyl]pyrazol-4-yl]amino]-[1,2,4]triazolo[1,5-a]pyridin-8-yl]-3,6-diazabicyclo[3.1.1]heptan-3-yl]butan-1-one] | > 320 | > 560
CN(C1CCN(C(=O)Cn2cc(Nc3nc4c(N5CC6CCC(C5)N6C(=O)N5CC(C(F)(F)F)C5)cccn4n3)cn2)CC1)C1COC1 [Example 62, 1-[4-[methyl(oxetan-3-yl)amino]piperidin-1-yl]-2-(4-[[8-(8-[[3-(trifluoromethyl)azetidin-1-yl]carbonyl]-3,8-diazabicyclo[3.2.1]octan-3-yl)-[1,2,4]triazolo[1,5-a]pyridin-2-yl]amino]-1H-pyrazol-1-yl)ethan-1-one] | 0.5 | 0.7
CN1CCN(C(=O)Cn2cc(Nc3nc4c(N5CC6CCC(C5)N6S(=O)(=O)c5ccc(Cl)cc5)cccn4n3)cn2)CC1 [Example 93, 2-[4-[[8-[8-(4-chlorophenyl)sulfonyl-3,8-diazabicyclo[3.2.1]octan-3-yl]-[1,2,4]triazolo[1,5-a]pyridin-2-yl]amino]pyrazol-1-yl]-1-(4-methylpiperazin-1-yl)ethanone] | 0.8 | 0.3
CN1CCN(C(=O)Cn2cc(Nc3nc4c(N5CC6CC(C5)N6Cc5ccc(Cl)cc5)cccn4n3)cn2)CC1 [Example 34, 2-[4-[(8-[6-[(4-chlorophenyl)methyl]-3,6-diazabicyclo[3.1.1]heptan-3-yl]-[1,2,4]triazolo[1,5-a]pyridin-2-yl)amino]-1H-pyrazol-1-yl]-1-(4-methylpiperazin-1-yl)ethan-1-one] | 271 | 68.8
CN1CCN(C(=O)Cn2cc(Nc3nc4c(N5CC6CCC(C5)N6C(=O)COCC(F)(F)F)cccn4n3)cn2)CC1 [Example 45, 1-(4-methylpiperazin-1-yl)-2-[4-[[8-[8-[2-(2,2,2-trifluoroethoxy)acetyl]-3,8-diazabicyclo[3.2.1]octan-3-yl]-[1,2,4]triazolo[1,5-a]pyridin-2-yl]amino]pyrazol-1-yl]ethanone] | 3.5 | 1
CN1CCN(C(=O)Cn2cc(Nc3nc4c(N5CC6CCC(C5)N6C(=O)c5ccc(Cl)cc5)cccn4n3)cn2)CC1 [Example 89] | 13.4 | 3.1
CN1CCN(C(=O)Cn2cc(Nc3nc4c(N5CC6CCC(C5)N6C(=O)CC(N)C(F)(F)F)cccn4n3)cn2)CC1 (stereo not shown) [Example 102, 3-amino-4,4,4-trifluoro-1-[3-[2-[[1-[2-(4-methylpiperazin-1-yl)-2-oxo-ethyl]pyrazol-4-yl]amino]-[1,2,4]triazolo[1,5-a]pyridin-8-yl]-3,8-diazabicyclo[3.2.1]octan-8-yl]butan-1-one] | 7.9 | 3.4
CN1CCN(C(=O)Cn2cc(Nc3nc4c(N5CC6CCC(C5)N6S(=O)(=O)Cc5ccccc5C(F)(F)F)cccn4n3)cn2)CC1 [Example 167, 1-(4-methylpiperazin-1-yl)-2-[4-[[8-[8-([2-(trifluoromethyl)phenyl]methylsulfonyl]-3,8-diazabicyclo[3.2.1]octan-3-yl]-[1,2,4]triazolo[1,5-a]pyridin-2-yl]amino]pyrazol-1-yl]ethanone] | 1 | 0.6
CN1CCN(C(=O)Cn2cc(Nc3nc4c(N5C[C@H]6CC[C@@H](C5)[C@H]6OCc5cnn(C)c5)cccn4n3)cn2)CC1 [Example 95, 1-(4-methylpiperazin-1-yl)-2-[4-[[8-[(1S,5R)-8-[(1-methylpyrazol-4-yl)methoxy]-3-azabicyclo[3.2.1]octan-3-yl]-[1,2,4]triazolo[1,5-a]pyridin-2-yl]amino]pyrazol-1-yl]ethanone] | 5 | 2.3
CN1CCN(C(=O)Cn2cc(Nc3nc4c(N5CC6CCC(C5)N6C(=O)c5cccc(CC#N)c5)cccn4n3)cn2)CC1 [Example 69, 2-[3-[3-[2-[[1-[2-(4-methylpiperazin-1-yl)-2-oxo-ethyl]pyrazol-4-yl]amino]-[1,2,4]triazolo[1,5-a]pyridin-8-yl]-3,8-diazabicyclo[3.2.1]octane-8-carbonyl]phenyl] acetonitrile] | 9.3 | 2.3
CC(C(=O)N1CCN(C)CC1)n1cc(Nc2nc3c(N4CC5CCCC(C4)N5C(=O)CCC(F)(F)F)cccn3n2)cn1 (stereo not shown) [Example 106, 4,4,4-trifluoro-1-[3-[2-[[1-[1-methyl-2-(4-methylpiperazin-1-yl)-2-oxo-ethyl]pyrazol-4-yl]amino]-[1,2,4]triazolo[1,5-a]pyridin-8-yl]-3,9-diazabicyclo[3.3.1]nonan-9-yl]butan-1-one] | 0.7 | 1.6
CN1CCN(C(=O)Cn2cc(Nc3nc4c(N5CC6CCC(C5)N6Cc5cnc(CC(F)(F)F)s5)cccn4n3)cn2)CC1 [Example 101, 1-(4-methylpiperazin-1-yl)-2-[4-[[8-[8-[[2-(2,2,2-trifluoroethyl)thiazol-5-yl]methyl]-3,8-diazabicyclo[3.2.1]octan-3-yl]-[1,2,4]triazolo[1,5-a]pyridin-2-yl]amino]pyrazol-1-yl]ethanone] | 10.3 | 2.9
CN(C)C(=O)CN1CCN(CC2CCN(C(=O)Cn3cc(Nc4nc5c(N6CC7CCC(C6)N7C(=O)CCC(F)(F)F)cccn5n4)cn3)CC2)CC1 [Example 75, N,N-dimethyl-2-[4-[[1-[2-[4-[[8-[8-(4,4,4-trifluorobutanoyl)-3,8-diazabicyclo[3.2.1]octan-3-yl]-[1,2,4]triazolo[1,5-a]pyridin-2-yl]amino]pyrazol-1-yl]acetyl]-4-piperidyl]methyl]piperazin-1-yl]acetamide] | 3.9 | 1.4
